Here are results for three compounds from patent US8293256B2, “Sulfamide derivatives and cosmetic use thereof” (L'Oreal, priority 2004, dated 2012).

For data set [1], the system named is stratum corneum. Nature of the data set: Transepidermal Water Loss (TWL) across isolated defatted stratum corneum (Evaporimeter EP1). The settings on record: 40% relative humidity, 30° C., 3% aqueous solution (compounds 9 and 15 in isopropyl N-lauroyl sarcosinate), mean ± standard deviation, 8 samples. The procedure: (§1) Two tests were performed to evaluate the moisturizing potential of the compounds of the invention formulated in an aqueous 3% solution (except for compounds 9 and 15, which were evaluated in a solution of isopropyl N-lauroyl sarcosinate).
Transepidermal Water Loss (TWL), evaluation of the changes in barrier function of the stratum corneum.
Transepidermal water loss is a physiological phenomenon of diffusion of water vapour across the horny layer. It results from the presence of a high pressure gradient of water vapour between the internal and external media of the body. The TWL depends on the integrity of the barrier function of the stratum corneum. The machine evaluating the TWL (Evaporimeter EP1, Servomed) measures the flow of water that diffuses passively across the stratum corneum (g/m^2/h).
The isolated stratum is placed (inner face) on a water tank and equilibrated in a room regulated at 40% relative humidity (T=30° C.). Before the measurement, the stratum corneum is defatted via a two-hour treatment in a mixture of chloroform and methanol (2 v/lv). For each measurement, the TWL is measured on the stratum corneum before treatment and then 2 and 20 hours after application of the treatment. […] The measurements are analysed in pairs. […]
The mean and the standard deviation were calculated on 8 samples distributed over 2 batches of stratum corneum.

Data set [2] has as its system stratum corneum. The data set can be described thus: Dermometer: mechanical measurement of the plasticizing effect (modulus of elasticity). As to conditions: 30° C., 75% relative humidity, 3% aqueous solution (compounds 9 and 15 in isopropyl N-lauroyl sarcosinate), mean ± standard deviation, 6 to 10 samples. Here is the method: as §1
Dermometer, mechanical measurement of the plasticizing effect (described by J. de Rigal, J-L. Leveque, International Journal of Cosmetic Science, 1982, 247-260),
The tests carried out were performed under standard conditions on stratum corneum in a room with regulated temperature and humidity (T=30° C. and RH=75%). The modulus of elasticity measurements are performed on each control specimen and then 2 hours and 20 hours after application of the treatment. The relative variation in the modulus allows assessment of the plasticizing effect of the active agent on the stratum corneum.
The mean and the standard deviation were calculated on 6 to 10 samples.

`NS(=O)(=O)NCCOS(N)(=O)=O` [Compound 17, 2-[(aminosulfonyl)amino]ethyl sulfamate] yielded a melting point of 78 to 82 °C.

`C[Si](C)(C)C(NS(N)(=O)=O)[Si](C)(C)C`: the melting point lay in the range of 76 to 77.5 °C.

`NC(N)=O` [3% urea in water, urea]: the “Relative variation of the TWL measurements” value in data set [1] (2 h after application) was 64.3 ± 26.9%; in data set [1] (20 h after application), 48.3 ± 24.5%. The “Relative variation in the modulus of elasticity of stratum corneum” value in data set [2] (2 h after application) was −72 ± 9%; in data set [2] (20 h after application), −83 ± 7%.
